Measurements from the NIST ThermoML archive (doi:10.1021/acs.jced.6b00169).
Values joined by “and” are separate entries in the source; they are usually repeats but may differ in a detail not shown here. Equal entries are not always repeated. ± gives the expanded uncertainty stated by the source.

Details: for vapor or sublimation pressure: Liquid, Closed cell (Static) method; for mass density: Fluid (supercritical or subcritical phases), isochoric method

FC(F)(F)/C=C\C(F)(F)F [(Z)-1,1,1,4,4,4-hexafluorobut-2-ene]
Details	vapor or sublimation pressure
323.47 K	182.2 ± 8 kPa
323.49 K	177.9 ± 8 kPa
323.5 K	180.6 ± 8 kPa [middle of 4 runs]
323.51 K	181.2 ± 8 kPa [middle of 7 runs]
323.52 K	180.2 ± 8 kPa [middle of 5 runs]
323.53 K	182.1 ± 8 kPa and 186.3 ± 8 kPa
333.44 K	247.7 ± 8 kPa
333.45 K	248.1 ± 8 kPa
333.46 K	243.8 ± 8 kPa
333.47 K	247.2 ± 8 kPa and 243.5 ± 8 kPa
333.48 K	246.1 ± 8 kPa and 248.3 ± 8 kPa
333.49 K	247.6 ± 8 kPa [middle of 9 runs]
333.5 K	254.8 ± 8 kPa
343.45 K	331.8 ± 8 kPa
343.46 K	331.6 ± 8 kPa
343.48 K	331.2 ± 8 kPa [middle of 6 runs]
343.49 K	330.6 ± 8 kPa [middle of 7 runs]
343.5 K	343.2 ± 8 kPa and 336.4 ± 8 kPa and 331.7 ± 8 kPa
353.46 K	435.3 ± 8.1 kPa
353.47 K	435.3 ± 8.1 kPa
353.48 K	435.2 ± 8.1 kPa and 429.9 ± 8 kPa and 430.2 ± 8 kPa
353.49 K	435.2 ± 8.1 kPa [middle of 5 runs]
353.5 K	434.6 ± 8.1 kPa [middle of 4 runs]
363.46 K	562 ± 8.1 kPa and 561.7 ± 8.1 kPa
363.47 K	555.8 ± 8.1 kPa and 556.4 ± 8.1 kPa
363.48 K	562.1 ± 8.1 kPa [middle of 4 runs]
363.49 K	562.2 ± 8.1 kPa [middle of 5 runs]
363.5 K	567.8 ± 8.1 kPa and 559.4 ± 8.1 kPa
373.45 K	714 ± 8.1 kPa
373.47 K	714.4 ± 8.1 kPa [middle of 4 runs]
373.48 K	731.7 ± 8.1 kPa and 715.2 ± 8.1 kPa
373.49 K	713.5 ± 8.1 kPa [middle of 5 runs]
373.5 K	716.9 ± 8.1 kPa [middle of 4 runs]
383.45 K	895.1 ± 8.2 kPa
383.46 K	888.7 ± 8.2 kPa
383.47 K	896.6 ± 8.2 kPa and 889.9 ± 8.2 kPa and 895.9 ± 8.2 kPa
383.48 K	896.5 ± 8.2 kPa and 895.3 ± 8.2 kPa
383.49 K	893.4 ± 8.2 kPa [middle of 6 runs]
383.5 K	921.5 ± 8.2 kPa and 896.4 ± 8.2 kPa
393.47 K	1103.1 ± 8.3 kPa and 1109.7 ± 8.3 kPa
393.48 K	1112.1 ± 8.3 kPa and 1110.3 ± 8.3 kPa
393.49 K	1109.6 ± 8.3 kPa [middle of 4 runs]
393.5 K	1111.5 ± 8.3 kPa [middle of 4 runs]
393.51 K	1113.3 ± 8.3 kPa and 1107 ± 8.3 kPa
403.41 K	1365.2 ± 8.4 kPa
403.47 K	1361.3 ± 8.4 kPa
403.48 K	1355 ± 8.4 kPa
403.49 K	1364.2 ± 8.4 kPa [middle of 4 runs]
403.5 K	1358.5 ± 8.4 kPa and 1362.4 ± 8.4 kPa
403.51 K	1363.4 ± 8.4 kPa and 1358.6 ± 8.4 kPa and 1364.3 ± 8.4 kPa
413.47 K	1648.2 ± 8.5 kPa and 1655.1 ± 8.5 kPa
413.49 K	1657.8 ± 8.5 kPa [middle of 4 runs]
413.5 K	1651.9 ± 8.5 kPa
413.51 K	1658.4 ± 8.5 kPa [middle of 4 runs]
423.47 K	1995.7 ± 8.7 kPa
423.48 K	2000.2 ± 8.7 kPa and 1989.3 ± 8.7 kPa
423.49 K	2000.4 ± 8.7 kPa and 1992.9 ± 8.7 kPa and 1997.8 ± 8.7 kPa
423.5 K	1990 ± 8.7 kPa and 1999.2 ± 8.7 kPa
423.51 K	1999.9 ± 8.7 kPa and 1993.1 ± 8.7 kPa and 1999.7 ± 8.7 kPa
433.46 K	2391.8 ± 9 kPa
433.47 K	2384.5 ± 9 kPa
433.49 K	2396.8 ± 9 kPa and 2389.4 ± 9 kPa and 2393.9 ± 9 kPa
433.5 K	2385.2 ± 9 kPa and 2388.6 ± 9 kPa
433.51 K	2396.2 ± 9 kPa
433.52 K	2395.9 ± 9 kPa
443.45 K	2854.5 ± 9.3 kPa
443.47 K	2837.9 ± 9.3 kPa
443.5 K	2847.4 ± 9.3 kPa and 2860.1 ± 9.3 kPa
443.51 K	2859.8 ± 9.3 kPa and 2850.8 ± 9.3 kPa

Details	mass density [kg/m3]
333.47 K, 5013.6 kPa	1294.9 ± 5
333.49 K, 4294.8 kPa	1291.4 ± 5
343.5 K, 9927.3 kPa	1290.8 ± 5
353.5 K, 1179.2 kPa	1214.2 ± 4.7
363.49 K, 3108.6 kPa	1196.7 ± 4.6
363.5 K, 5627.6 kPa	1213.6 ± 4.7
373.49 K, 7319.3 kPa	1196.2 ± 4.6
383.48 K, 2373.8 kPa	1121.1 ± 4.3
393.48 K, 5697.9 kPa	1120.5 ± 4.3
393.51 K, 1151.8 kPa	1038.9 ± 5.3
403.48 K, 1382.1 kPa	964.9 ± 64
403.49 K, 1273.1 kPa	87.8
403.5 K, 9039.9 kPa	1120 ± 4.3
403.51 K, 2538.6 kPa	1038.4 ± 4
413.48 K, 1705.4 kPa	964.4 ± 17
413.49 K, 1667.6 kPa	884.8 ± 16
413.5 K, 1339.2 kPa	87.8 ± 16
413.51 K, 5100.3 kPa	1037.9 ± 4
423.48 K, 3720.9 kPa	964 ± 3.7
423.49 K, 2049.1 kPa	884.4 ± 4.4
423.5 K, 1403.2 kPa	87.7 ± 9.9
423.51 K, 7690 kPa	1037.4 ± 4
433.47 K, 2440.9 kPa	790.6 ± 5.3
433.49 K, 1466 kPa	87.7 ± 1
433.49 K, 3342.9 kPa	883.9 ± 3.4
433.49 K, 5765 kPa	963.5 ± 3.7
433.5 K, 2159.2 kPa	167.2 ± 5.7
443.48 K, 2727.2 kPa	261.3 ± 5.3
443.48 K, 3403.1 kPa	790.2 ± 3.3
443.49 K, 2855.8 kPa	451.8 ± 110
443.49 K, 2856.2 kPa	410.2 ± 110
443.49 K, 2906.1 kPa	659.8 ± 13
443.49 K, 4930.5 kPa	883.5 ± 3.4
443.5 K, 1526.7 kPa	87.6 ± 1
443.5 K, 2301.4 kPa	167.1 ± 1.9
443.5 K, 2856.5 kPa	556.1 ± 120
443.5 K, 2857 kPa	496.8 ± 120
443.5 K, 3041.4 kPa	734.7 ± 4.2
443.5 K, 7837.5 kPa	963.1 ± 3.7
443.51 K, 2855.3 kPa	532.1 ± 120
443.51 K, 2860.2 kPa	589.2 ± 120
444.48 K, 2904 kPa	410.2 ± 120
444.48 K, 2905.8 kPa	451.8 ± 100
444.49 K, 2907.9 kPa	496.8 ± 79
444.49 K, 2909.6 kPa	556.1 ± 38
